Source: the NIST ThermoML archive (doi:10.1016/j.tca.2012.07.004)

Key:
[1] = 101 kPa, Liquid; for mass density: Vibrating tube method; for viscosity: Vibrating wire viscometry; for speed of sound: ultrasonic interferometer
[2] = xn = mol fraction of the nth substance listed; conditions: 101 kPa, Liquid, x2 = 0; for mass density: Vibrating tube method; for viscosity: Vibrating wire viscometry; for speed of sound: ultrasonic interferometer

CN1CCCC1=O [N-methylpyrrolidone]
[1]
Conditions | mass density [kg/m3] | speed of sound [m/s] | viscosity [mPa·s]
298.15 K | 1025.9 | 1572 | 1.66
303.15 K | 1023.74 | 1552 | 1.49
308.15 K | 1019.25 | 1528 | 1.39
313.15 K | 1014.74 | 1520 | 1.31

CN1CCCC1=O [N-methylpyrrolidone] + CC(=O)[O-].C[NH+](C)C
[2]
Conditions | mass density [kg/m3] | speed of sound [m/s] | viscosity [mPa·s]
298.15 K | 1025.9 | 1572 | 1.66
303.15 K | 1023.74 | 1552 | 1.49
308.15 K | 1019.25 | 1528 | 1.39
313.15 K | 1014.74 | 1520 | 1.31

CN1CCCC1=O [N-methylpyrrolidone] + CCN(CC)CC.O=P(O)(O)O
[2]
Conditions | mass density [kg/m3] | speed of sound [m/s] | viscosity [mPa·s]
298.15 K | 1025.9 | 1572 | 1.66
303.15 K | 1023.74 | 1552 | 1.49
308.15 K | 1019.25 | 1528 | 1.39
313.15 K | 1014.74 | 1520 | 1.31

CN1CCCC1=O [N-methylpyrrolidone] + C[NH+](C)C.O=P([O-])(O)O
[2]
Conditions | mass density [kg/m3] | speed of sound [m/s] | viscosity [mPa·s]
298.15 K | 1025.9 | 1572 | 1.66
303.15 K | 1023.74 | 1552 | 1.49
308.15 K | 1019.25 | 1528 | 1.39
313.15 K | 1014.74 | 1520 | 1.31

CN1CCCC1=O [N-methylpyrrolidone] + C[NH+](C)C.O=S(=O)([O-])O
[2]
Conditions | mass density [kg/m3] | speed of sound [m/s] | viscosity [mPa·s]
298.15 K | 1025.9 | 1572 | 1.66
303.15 K | 1023.74 | 1552 | 1.49
308.15 K | 1019.25 | 1528 | 1.39
313.15 K | 1014.74 | 1520 | 1.31

CCN(CC)CC.O=P(O)(O)O [triethylammonium dihydrogen phosphate]
[1]
Conditions | mass density [kg/m3] | speed of sound [m/s] | viscosity [mPa·s]
298.15 K | 1125.7 | 1794 | 64.31
303.15 K | 1124.68 | 1769 | 57.1
308.15 K | 1123.71 | 1757 | 49.53
313.15 K | 1122.37 | 1730 | 38.31

CC(=O)[O-].C[NH+](C)C [trimethylammonium acetate]
[1]
Conditions | mass density [kg/m3] | speed of sound [m/s] | viscosity [mPa·s]
298.15 K | 1053.85 | 1544 | 2.76
303.15 K | 1049.87 | 1514 | 2.37
308.15 K | 1045.81 | 1508 | 2.06
313.15 K | 1041.7 | 1490 | 1.83

C[NH+](C)C.O=P([O-])(O)O [trimethylammonium dihydrogen phosphate]
[1]
Conditions | mass density [kg/m3] | speed of sound [m/s] | viscosity [mPa·s]
298.15 K | 1353.61 | 1672 | 7.64
303.15 K | 1350.62 | 1660 | 6.46
308.15 K | 1347.59 | 1661 | 5.61
313.15 K | 1344.53 | 1664 | 5.07

C[NH+](C)C.O=S(=O)([O-])O [trimethylammonium hydrogen sulfate]
[1]
Conditions | mass density [kg/m3] | speed of sound [m/s] | viscosity [mPa·s]
298.15 K | 1467.58 | 1564 | 5.1
303.15 K | 1463.56 | 1560 | 4.48
308.15 K | 1463.5 | 1556 | 3.94
313.15 K | 1455.63 | 1552 | 3.16
